# Reference: patent US11905280B1, “2-(benzo[d]oxazol-2-yl)-N'-(picolinoyloxy)acetimidamide as an antimicrobial compound” (KING FAISAL UNIVERSITY, priority 2023, dated 2024)
# Legend:
# [1] = test system: Chrysosporium keratinophilum; assay: Agar plate disc-diffusion antifungal test; format: cell-based; conditions: Sabouraud's dextrose agar, 72 hours
# Procedure: (§1) The agar plate disc-diffusion method was applied. Sterilized filter papers (6 mm in diameter) were wetted with 10 μL of a solution of 2-(benzo[d]oxazol-2-yl)-N′-(picolinoyloxy)acetimidamide (3) to be tested, containing 10 mg/mL in DMSO, and the discs were allowed to air dry. The discs were then placed onto the surface of agar plates (nutrient agar for bacteria and Sabouraud's dextrose agar for fungi) seeded with the test organism. Each plate contained 15 mL of the agar medium, previously seeded with 0.2 mL of the broth culture of each organism pregrown for 18 hours. The plates were incubated at 37° C. for 48 hours, and 72 hours for fungi. The inhibition zones was measured in mm. Discs impregnated with DMSO were used as a control, and its inhibition zone was subtracted from the tested compound actual inhibition zone.
# Aspergillus flavus = assay: Agar plate disc-diffusion antifungal test; format: cell-based; conditions: Sabouraud's dextrose agar, 72 hours
# Procedure: as §1
# Escherichia coli = assay: Agar plate disc-diffusion antibacterial test; format: cell-based; conditions: nutrient agar, 37° C., 48 hours
# Procedure: as §1
# Staphylococcus aureus = assay: Agar plate disc-diffusion antibacterial test; format: cell-based; conditions: nutrient agar, 37° C., 48 hours
# Procedure: as §1
# Pseudomonas aeruginosa = assay: Agar plate disc-diffusion antibacterial test; format: cell-based; conditions: nutrient agar, 37° C., 48 hours
# Procedure: as §1
# Bacillus cereus = assay: Agar plate disc-diffusion antibacterial test; format: cell-based; conditions: nutrient agar, 37° C., 48 hours
# Procedure: as §1
# [2] = A = concentration of comp. = 10,000 μL
# [3] = B = concentration of comp. = 30,000 μL
# [4] = C = concentration of comp. = 50,000 μL
smiles,measurement,setting,value
"N/C(Cc1nc2ccccc2o1)=N\OC(=O)c1ccccn1 [Compound 3, 2-(benzo[d]oxazol-2-yl)-N′-(picolinoyloxy)acetimidamide]",melting point,,156 to 158 °C
same,"inhibition zone, Chrysosporium keratinophilum, A",[1]; [2],23 mm
same,"inhibition zone, Chrysosporium keratinophilum, B",[1]; [3],29 mm
same,"inhibition zone, Chrysosporium keratinophilum, C",[1]; [4],48 mm
same,"inhibition zone, Aspergillus flavus, A",Aspergillus flavus; [2],24 mm
same,"inhibition zone, Aspergillus flavus, B",Aspergillus flavus; [3],27 mm
same,"inhibition zone, Aspergillus flavus, C",Aspergillus flavus; [4],38 mm
same,"inhibition zone, Escherichia coli, A",Escherichia coli; [2],29 mm
same,"inhibition zone, Escherichia coli, B",Escherichia coli; [3],37 mm
same,"inhibition zone, Escherichia coli, C",Escherichia coli; [4],53 mm
same,"inhibition zone, Staphylococcus aureus, A",Staphylococcus aureus; [2],15 mm
same,"inhibition zone, Staphylococcus aureus, B",Staphylococcus aureus; [3],20 mm
same,"inhibition zone, Staphylococcus aureus, C",Staphylococcus aureus; [4],28 mm
same,"inhibition zone, Pseudomonas aeruginosa, A",Pseudomonas aeruginosa; [2],25 mm
same,"inhibition zone, Pseudomonas aeruginosa, B",Pseudomonas aeruginosa; [3],31 mm
same,"inhibition zone, Pseudomonas aeruginosa, C",Pseudomonas aeruginosa; [4],45 mm
same,"inhibition zone, Bacillus Cereus, A",Bacillus cereus; [2],25 mm
same,"inhibition zone, Bacillus Cereus, B",Bacillus cereus; [3],27 mm
same,"inhibition zone, Bacillus Cereus, C",Bacillus cereus; [4],39 mm
